US20230241226A1, “COMPOUNDS FOR TARGETED DEGRADATION OF CARRIER PROTEINS AND USES THEREOF” (CeMM - Forschungszentrum für Molekulare Medizin GmbH, priority 2019, published 2023)

Columns and labels:
[1] = tested on: Peripheral blood mononuclear cells (PBMCs); assay: Cell viability assay (CellTiter-Glo), single dose, FIG. 10; assay type: cell-based, human; conditions: patient samples; 75 nM d9A1-2 vs 7.5 µM EIPA; 72 hours
Experimental: FIG. 10: Viability assay Relative viability of Peripheral blood mononuclear cells (PBMCs) after single-dose treatment with the d9A1-2 molecule or ethyl-isopropyl amiloride (EIPA). PBMCs were isolated from healthy donors and patients with acute myeloid leukemia, multiple myeloma, B cell lymphoma and Hodgkin’s lymphoma, chronic lymphocytic leukeumia. Viability was assayed using the CellTiter-Glo assay, 72 hours post treatment.
Peripheral blood mononuclear cells (PBMCs) were isolated using Lymphoprep (Stem Cell Technologies) from healthy donors and patients with acute myeloid leukemia, multiple myeloma, B cell lymphoma, Hodgkin’s lymphoma, chronic lymphocytic leukeumia. For comparison of different samples, compounds were transferred on black 384-well plates using an acoustic liquid handler (Echo, Labcyte).
Cells were seeded in these plates at densities of 20,000 cells per well in RPMI media (Gibco), supplemented with 10% fetal calf serum (Gibco). Viability was measured after 72 hours using the CellTiter-Glo assay (Promega) on a plate reader (SpectraMax i3x, Molecular Probes). All measurements were done in technical quadruplicates. Toxicity achieved by treatment with d9A1-2 or ethyl-isopropyl amiloride (EIPA) (Sigma) was normalized to the reference controls. Dose response fitting curves were obtained and plotted using GraphPad Prism V8. Data is presented as mean +/- SD.

dTAG-HA SLC39A7 = target: T1, dTAG-HA SLC39A7 (Homo sapiens, UniProt Q92504+Q96SW2); assay: Targeted degradation of dTAG-tagged SLC39A7 (western blot); assay type: cell-based; conditions: HAP1, 0.5 µM, 24, 48 or 72 hours
T1 construct: expressed in transfected cells
T1 sequence (Q92504 with tags, fused parts or gaps): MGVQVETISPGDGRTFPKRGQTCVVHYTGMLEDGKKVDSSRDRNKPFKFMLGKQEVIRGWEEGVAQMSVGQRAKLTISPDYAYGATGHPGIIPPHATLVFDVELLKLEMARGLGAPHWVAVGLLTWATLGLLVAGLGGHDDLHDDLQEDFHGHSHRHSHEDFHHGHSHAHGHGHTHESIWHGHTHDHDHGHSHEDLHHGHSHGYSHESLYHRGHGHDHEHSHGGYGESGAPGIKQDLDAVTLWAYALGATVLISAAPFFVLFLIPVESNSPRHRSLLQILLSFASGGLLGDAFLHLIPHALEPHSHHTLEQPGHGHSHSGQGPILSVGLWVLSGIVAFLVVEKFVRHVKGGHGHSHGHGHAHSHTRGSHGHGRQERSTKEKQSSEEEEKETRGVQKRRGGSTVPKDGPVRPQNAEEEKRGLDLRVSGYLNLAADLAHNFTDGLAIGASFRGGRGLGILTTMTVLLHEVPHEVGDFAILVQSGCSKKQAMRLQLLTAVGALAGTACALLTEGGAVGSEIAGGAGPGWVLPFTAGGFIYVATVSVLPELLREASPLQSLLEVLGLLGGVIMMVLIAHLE
T1 sequence (Q96SW2 whole entry): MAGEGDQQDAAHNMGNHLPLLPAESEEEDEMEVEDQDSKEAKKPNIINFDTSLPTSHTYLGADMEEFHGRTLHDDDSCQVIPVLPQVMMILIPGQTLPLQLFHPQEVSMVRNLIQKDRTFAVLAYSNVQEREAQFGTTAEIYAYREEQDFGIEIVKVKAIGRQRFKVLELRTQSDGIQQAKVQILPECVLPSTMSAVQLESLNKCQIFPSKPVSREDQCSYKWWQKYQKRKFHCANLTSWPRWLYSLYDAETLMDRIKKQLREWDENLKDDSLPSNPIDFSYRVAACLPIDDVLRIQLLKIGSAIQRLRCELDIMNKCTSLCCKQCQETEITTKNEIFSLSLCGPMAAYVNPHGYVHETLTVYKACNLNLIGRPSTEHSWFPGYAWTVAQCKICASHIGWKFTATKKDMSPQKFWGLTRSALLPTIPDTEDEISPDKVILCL
T1 sequence (Q16531 whole entry partner): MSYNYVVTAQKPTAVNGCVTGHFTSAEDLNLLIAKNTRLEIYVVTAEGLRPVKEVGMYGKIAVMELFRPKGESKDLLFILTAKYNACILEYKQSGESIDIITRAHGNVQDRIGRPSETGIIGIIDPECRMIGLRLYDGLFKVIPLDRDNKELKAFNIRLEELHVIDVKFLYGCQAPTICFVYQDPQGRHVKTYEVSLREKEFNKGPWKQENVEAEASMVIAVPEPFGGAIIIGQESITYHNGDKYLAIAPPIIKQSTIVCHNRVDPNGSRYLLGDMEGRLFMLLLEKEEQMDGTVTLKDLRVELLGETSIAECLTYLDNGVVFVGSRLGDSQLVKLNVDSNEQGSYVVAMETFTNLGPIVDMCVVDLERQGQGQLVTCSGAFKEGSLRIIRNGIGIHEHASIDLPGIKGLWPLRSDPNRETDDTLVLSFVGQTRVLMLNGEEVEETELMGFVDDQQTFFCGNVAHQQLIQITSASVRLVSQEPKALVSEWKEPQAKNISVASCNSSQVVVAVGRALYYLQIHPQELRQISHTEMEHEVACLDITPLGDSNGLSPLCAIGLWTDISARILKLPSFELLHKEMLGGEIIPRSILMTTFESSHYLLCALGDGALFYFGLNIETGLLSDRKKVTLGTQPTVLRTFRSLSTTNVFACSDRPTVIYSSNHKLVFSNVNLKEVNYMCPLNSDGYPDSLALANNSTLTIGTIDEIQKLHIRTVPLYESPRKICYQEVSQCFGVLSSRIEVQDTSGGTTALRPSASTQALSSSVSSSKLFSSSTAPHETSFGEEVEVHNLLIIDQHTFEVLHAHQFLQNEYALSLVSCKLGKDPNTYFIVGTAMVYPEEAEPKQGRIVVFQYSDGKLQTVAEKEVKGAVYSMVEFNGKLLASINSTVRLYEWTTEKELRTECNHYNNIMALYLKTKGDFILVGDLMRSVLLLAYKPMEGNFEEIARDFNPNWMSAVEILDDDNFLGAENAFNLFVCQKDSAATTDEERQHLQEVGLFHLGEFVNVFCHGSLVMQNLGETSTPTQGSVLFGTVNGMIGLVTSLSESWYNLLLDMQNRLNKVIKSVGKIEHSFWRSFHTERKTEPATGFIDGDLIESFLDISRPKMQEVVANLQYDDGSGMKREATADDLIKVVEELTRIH
Experimental: (C)HAP1 cells expressing dTAG-HA SLC1A5, 2A3, 30A9, 35B2, MTCH2, and 33A1 were treated for 24 hours with 0.5 µM of dTAG7 or dTAG13, as indicated. HAP1 cells expressing dTAG-HA SLC2A1 and 16A1 were treated for 24 hrs with 0.5 µM of dTAG7. HAP1 cell lines expressing dTAG-HA SLC39A7, dTAG-HA SLC4A4, and SLC7A3-dTAG-HA were treated for 48 hrs with 0.5 µM of dTAG13.
SLC1A5, SLC2A1, SLC2A3, SLC16A1, SLC38A1, SLC38A2 were obtained as gateway-compatible pENTR/pDONR vectors from the Harvard PlasmID Repository. SLC39A7 was obtained from Dharmacon, GE Healthcare. The following vectors were synthesized by Genescript: SLC4A4, SLC7A3, SLC38A9, SLC25A1, SLC9A1, SLC9A2, SLC9A3, SLC9A4, SLC9A5, SLC9A6, SLC9A7, SLC9A8, and SLC9B2. […]
For immunoblotting, whole cell extracts were prepared using RIPA lysis buffer (25 mM Tris/HCl pH 7.6, 150 mM NaCl, 1% NP-40, 1% sodium deoxycholate, 0.1% SDS, EDTA-free protease inhibitor (Roche) and phosphatase inhibitors 2+3 (Sigma- Aldrich)). […] Protein extracts were quantified and normalized using the BCA assay (Thermo Scientific). […]
SLCs were ectopically expressed as fusions to a mutated FKBP domain, also known as the dTAG system. […]

SMILES	toxicity (relative viability) in patient PBMCs compared with EIPA [1]	reversibility of degradation of the target SLC (dTAG-HA SLC39A7)
Cc1cc(-c2ccc(C(=O)NCCOCCOCCOCCOCCNc3cccc4c3C(=O)N(C3CCC(=O)NC3=O)C4=O)cc2N2CCC(c3[nH]cnc3C)CC2)ccc1F (centres unmarked) [d9A1-2]	considerably more toxic than 7.5 µM EIPA	
CC[C@H](C(=O)N1CCCC[C@H]1C(=O)O[C@H](CCc1ccc(OC)c(OC)c1)c1ccccc1OCC(=O)NCCCOCCOCCOCCCNC(=O)COc1cccc2c1C(=O)N(C1CCC(=O)NC1=O)C2=O)c1cc(OC)c(OC)c(OC)c1 (some centres unmarked) [dTAG7]		reversible degradation
